Data taken from ChEMBL document CHEMBL1143296, “Thienopyrimidine-based dual EGFR/ErbB-2 inhibitors” (Bioorg Med Chem Lett, 2009).
pIC50: −log10 of the molar value. Values belong to the compound of their own block, whether it stands above or below them.

Key:
HN5 [1] = test: Antiproliferative activity against human HN5 cells expressing EGFR after 72 hrs by CTG assay; conditions: HN5, 72 h
[2] = molecular target: T1, Receptor tyrosine-protein kinase erbB-2 (Homo sapiens, UniProt P04626)
[3] = molecular target: Epidermal growth factor receptor (Homo sapiens, UniProt P00533)
Epidermal growth factor receptor, sequence (P00533 whole entry): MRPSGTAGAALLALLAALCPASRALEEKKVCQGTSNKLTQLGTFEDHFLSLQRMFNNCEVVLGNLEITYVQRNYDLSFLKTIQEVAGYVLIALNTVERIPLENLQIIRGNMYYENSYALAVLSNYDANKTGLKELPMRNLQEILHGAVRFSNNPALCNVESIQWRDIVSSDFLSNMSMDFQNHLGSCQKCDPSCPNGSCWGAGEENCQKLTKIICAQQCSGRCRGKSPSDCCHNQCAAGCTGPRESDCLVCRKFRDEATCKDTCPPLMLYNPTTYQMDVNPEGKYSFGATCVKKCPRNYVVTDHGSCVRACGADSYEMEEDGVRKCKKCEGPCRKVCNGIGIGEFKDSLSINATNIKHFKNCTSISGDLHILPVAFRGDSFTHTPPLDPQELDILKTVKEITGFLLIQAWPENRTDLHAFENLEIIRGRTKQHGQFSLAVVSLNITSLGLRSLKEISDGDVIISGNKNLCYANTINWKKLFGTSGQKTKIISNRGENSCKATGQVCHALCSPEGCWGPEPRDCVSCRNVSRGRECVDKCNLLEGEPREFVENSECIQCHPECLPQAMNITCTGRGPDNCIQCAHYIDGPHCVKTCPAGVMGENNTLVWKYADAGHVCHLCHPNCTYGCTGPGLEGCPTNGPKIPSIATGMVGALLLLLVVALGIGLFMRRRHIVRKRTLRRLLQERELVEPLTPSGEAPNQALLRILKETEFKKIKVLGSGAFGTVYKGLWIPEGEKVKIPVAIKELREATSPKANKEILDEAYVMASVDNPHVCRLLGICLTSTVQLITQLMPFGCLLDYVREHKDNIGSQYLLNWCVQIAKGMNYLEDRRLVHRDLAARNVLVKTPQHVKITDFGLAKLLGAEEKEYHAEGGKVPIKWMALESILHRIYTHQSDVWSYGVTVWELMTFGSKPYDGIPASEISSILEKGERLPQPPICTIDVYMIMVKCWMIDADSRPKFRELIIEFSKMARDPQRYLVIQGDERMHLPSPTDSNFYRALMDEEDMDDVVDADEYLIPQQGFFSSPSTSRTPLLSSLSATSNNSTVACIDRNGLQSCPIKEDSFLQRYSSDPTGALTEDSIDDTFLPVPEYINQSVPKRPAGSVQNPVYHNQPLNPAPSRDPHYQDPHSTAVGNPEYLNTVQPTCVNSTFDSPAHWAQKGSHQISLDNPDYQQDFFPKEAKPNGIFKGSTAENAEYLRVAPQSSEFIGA

BT-474 [4] = test: Antiproliferative activity against human BT474 cells expressing ErbB2 after 72 hrs by CTG assay; conditions: BT-474, 72 h
HFF [5] = test: Antiproliferative activity against HFF after 72 hrs by CTG assay; conditions: Homo sapiens
BT-474 [6] = test: Antiproliferative activity against human BT474 cells expressing ErbB2 by MEB assay
HFF [7] = test: Antiproliferative activity against HFF after 72 hrs by MEB assay; conditions: Homo sapiens
HN5 [8] = test: Antiproliferative activity against human HN5 cells expressing EGFR by MEB assay
[9] = molecular target: T1, Receptor tyrosine-protein kinase erbB-2; test: Inhibition of ErbB2 intracellular autophosphorylation of ErbB2 in human BT474 cells by DELFIA assay; format: cell-based, BT-474

T1 sequence (P04626 whole entry): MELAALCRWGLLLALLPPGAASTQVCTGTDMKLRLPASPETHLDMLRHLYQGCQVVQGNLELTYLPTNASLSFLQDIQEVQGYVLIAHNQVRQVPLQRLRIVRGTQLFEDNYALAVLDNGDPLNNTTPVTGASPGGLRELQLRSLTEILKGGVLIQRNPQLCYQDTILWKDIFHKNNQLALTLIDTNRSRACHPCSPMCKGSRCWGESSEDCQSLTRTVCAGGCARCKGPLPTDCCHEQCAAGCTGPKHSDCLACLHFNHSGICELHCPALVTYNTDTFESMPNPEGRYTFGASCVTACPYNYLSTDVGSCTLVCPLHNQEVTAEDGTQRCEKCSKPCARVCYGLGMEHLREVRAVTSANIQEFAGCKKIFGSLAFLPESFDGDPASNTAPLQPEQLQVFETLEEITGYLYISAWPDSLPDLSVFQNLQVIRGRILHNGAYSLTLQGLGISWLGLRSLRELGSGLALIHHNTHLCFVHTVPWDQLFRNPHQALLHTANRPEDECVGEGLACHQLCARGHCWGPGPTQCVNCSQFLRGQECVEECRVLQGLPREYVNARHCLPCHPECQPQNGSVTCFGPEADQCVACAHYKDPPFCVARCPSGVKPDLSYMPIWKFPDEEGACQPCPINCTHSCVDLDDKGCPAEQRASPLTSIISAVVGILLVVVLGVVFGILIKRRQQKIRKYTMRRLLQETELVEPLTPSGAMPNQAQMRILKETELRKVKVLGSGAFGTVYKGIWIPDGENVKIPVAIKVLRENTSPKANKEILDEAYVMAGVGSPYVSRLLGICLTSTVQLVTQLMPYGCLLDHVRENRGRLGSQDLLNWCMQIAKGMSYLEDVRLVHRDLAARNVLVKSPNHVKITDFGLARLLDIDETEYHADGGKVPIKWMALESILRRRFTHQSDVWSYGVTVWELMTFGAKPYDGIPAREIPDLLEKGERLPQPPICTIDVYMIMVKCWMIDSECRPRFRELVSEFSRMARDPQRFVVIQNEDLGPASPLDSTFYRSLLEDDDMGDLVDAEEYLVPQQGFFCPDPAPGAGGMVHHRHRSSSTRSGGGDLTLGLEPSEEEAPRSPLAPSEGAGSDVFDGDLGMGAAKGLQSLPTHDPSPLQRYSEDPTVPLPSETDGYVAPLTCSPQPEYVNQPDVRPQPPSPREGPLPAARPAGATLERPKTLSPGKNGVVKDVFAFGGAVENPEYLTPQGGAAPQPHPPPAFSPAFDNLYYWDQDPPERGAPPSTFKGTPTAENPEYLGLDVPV

pIC50 [2]: 6.91
pIC50 (BT-474 [6]): 6.14
pIC50 [3]: 8.52
Compound: OCc1ccc(-c2cc3ncnc(Nc4ccc(OCc5cccc(F)c5)c(Cl)c4)c3s2)o1
pIC50 (HFF [7]): 5.03
pIC50 (HN5 [8]): 7.00

pIC50 [2]: 7.17
Compound: N#CCNCc1ccc(-c2cc3ncnc(Nc4ccc(OCc5cccc(F)c5)c(Cl)c4)c3s2)o1

pIC50 [2]: 7.17
pIC50 [3]: 8.22
Compound: CCNCc1ccc(-c2cc3ncnc(Nc4ccc(OCc5cccc(F)c5)c(Cl)c4)c3s2)[nH]1

pIC50 [2]: 6.84
pIC50 [3]: 8.70
pIC50 (BT-474 [4]): 5.73
Compound: CN(C)Cc1ccc(-c2cc3ncnc(Nc4ccc(OCc5cccc(F)c5)c(Cl)c4)c3s2)o1
pIC50 (HN5 [1]): 5.91
pIC50 (HFF [5]): 5.35

pIC50 [2]: 7.15
pIC50 [3]: 9.00
pIC50 (BT-474 [4]): 6.38
Compound: CS(=O)(=O)CCNCc1ccc(-c2cc3ncnc(Nc4ccc(OCc5cccc(F)c5)c(Cl)c4)c3s2)o1
pIC50 (HN5 [1]): 6.39
pIC50 (HFF [5]): < 4.52

pIC50 (BT-474 [6]): 6.14
Compound: CS(=O)(=O)CCNCc1cc(-c2cc3ncnc(Nc4ccc(OCc5cccc(F)c5)c(Cl)c4)c3s2)co1
pIC50 (HFF [7]): 5.10

pIC50 [2]: 6.15
pIC50 [3]: 8.00
pIC50 (BT-474 [4]): 4.67
Compound: Fc1cccc(COc2ccc(Nc3ncnc4cc(-c5ccco5)sc34)cc2Cl)c1
pIC50 (HN5 [1]): 5.09
pIC50 (HFF [5]): < 4.52

pIC50 [2]: 8.22
pIC50 [3]: 7.92
pIC50 (BT-474 [4]): 6.38
Compound: CS(=O)(=O)CCNCc1ccc(-c2cc3c(Nc4ccc(OCc5cccc(F)c5)c(Cl)c4)ncnc3s2)o1
pIC50 (HN5 [1]): 6.38
pIC50 (HFF [5]): 4.71

pIC50 [2]: 6.60
pIC50 [3]: 8.30
Compound: CN1CCN(Cc2ccc(-c3cc4ncnc(Nc5ccc(OCc6cccc(F)c6)c(Cl)c5)c4s3)o2)CC1 [GW784684X]

The next lines start with the compound.

Compound: Fc1cccc(COc2ccc(Nc3ncnc4cc(-c5cccs5)sc34)cc2Cl)c1
pIC50 (HN5 [1]): 5.66
pIC50 [2]: 6.95
pIC50 [3]: 8.10
pIC50 (BT-474 [4]): 5.24
pIC50 (HFF [5]): 4.97

Compound: Fc1cccc(COc2ccc(Nc3ncnc4cc(-c5ccc[nH]5)sc34)cc2Cl)c1
pIC50 [2]: 6.92
pIC50 (BT-474 [6]): 6.27
pIC50 [3]: 7.17
pIC50 (HFF [7]): 5.63
pIC50 (HN5 [8]): 6.24
pIC50 [9]: 6.08

Compound: CN(C)Cc1ccc(-c2cc3ncnc(Nc4ccc(OCc5cccc(F)c5)c(Cl)c4)c3s2)[nH]1
pIC50 [2]: 7.12
pIC50 [3]: 8.40

Compound: CS(=O)(=O)CCNCc1cc(-c2cc3ncnc(Nc4ccc(OCc5cccc(F)c5)c(Cl)c4)c3s2)cs1
pIC50 [2]: 7.51
pIC50 (BT-474 [6]): 6.22
pIC50 [3]: 8.52
pIC50 (HFF [7]): < 4.52
pIC50 (HN5 [8]): 7.00

Compound: CS(=O)(=O)CCNCc1ccc(-c2cc3ncnc(Nc4ccc(OCc5cccc(F)c5)c(Cl)c4)c3s2)[nH]1
pIC50 (HN5 [1]): 6.11
pIC50 [2]: 6.95
pIC50 [3]: 8.15
pIC50 (BT-474 [4]): 6.20
pIC50 [9]: 6.37
pIC50 (HFF [5]): 5.43

Compound: Fc1cccc(COc2ccc(Nc3ncnc4sc(-c5ccc[nH]5)cc34)cc2Cl)c1
pIC50 [2]: 6.69
pIC50 (BT-474 [6]): 5.70
pIC50 [3]: 6.94
pIC50 (HFF [7]): < 5.52
pIC50 (HN5 [8]): 5.57

Compound: CN(C)Cc1ccc(-c2cc3c(Nc4ccc(OCc5cccc(F)c5)c(Cl)c4)ncnc3s2)[nH]1
pIC50 [2]: 6.61
pIC50 [3]: 7.17

Compound: CCNCc1ccc(-c2cc3c(Nc4ccc(OCc5cccc(F)c5)c(Cl)c4)ncnc3s2)[nH]1
pIC50 [2]: 6.95
pIC50 [3]: 6.92

Compound: CS(=O)(=O)CCNCc1ccc(-c2cc3c(Nc4ccc(OCc5cccc(F)c5)c(Cl)c4)ncnc3s2)s1
pIC50 [2]: 7.02
pIC50 [3]: 7.02

Compound: CS(=O)(=O)CCNCc1ccc(-c2cc3c(Nc4ccc(OCc5cccc(F)c5)c(Cl)c4)ncnc3s2)[nH]1
pIC50 [2]: 6.82
pIC50 [3]: 6.86

Compound: Fc1cccc(COc2ccc(Nc3ncnc4sc(-c5ccc(CNCc6ccccc6)o5)cc34)cc2Cl)c1
pIC50 [2]: 6.05
pIC50 [3]: 7.27

Compound: CS(=O)(=O)CCNCc1cc(-c2cc3c(Nc4ccc(OCc5cccc(F)c5)c(Cl)c4)ncnc3s2)cs1 [GSK-300014A]
pIC50 [2]: 6.52
pIC50 [3]: 6.52

Compound: Fc1cccc(COc2ccc(Nc3ncnc4sc(-c5ccco5)cc34)cc2Cl)c1 [GSK-969786A]
pIC50 (HN5 [1]): < 4.52
pIC50 [2]: 7.85
pIC50 [3]: 7.82
pIC50 (BT-474 [4]): < 4.52
pIC50 (HFF [5]): < 4.52

Compound: Fc1cccc(COc2ccc(Nc3ncnc4sc(-c5cccs5)cc34)cc2Cl)c1 [GW684626B]
pIC50 (HN5 [1]): 5.00
pIC50 [2]: 7.37
pIC50 [3]: 8.05
pIC50 (BT-474 [4]): 5.49
pIC50 (HFF [5]): 5.01

Compound: CS(=O)(=O)CCNCc1ccc(-c2ccc3ncnc(Nc4ccc(OCc5cccc(F)c5)c(Cl)c4)c3c2)o1 [LAPATINIB DITOSYLATE]
pIC50 (BT-474 [6]): 7.00
